Assay results taken from paper PMC5516028, “Molecular tools for GABAA receptors: High affinity ligands for β1-containing subtypes” (Scientific Reports, 2017).
“And” between values parts separate entries of the source, which are not always exact repeats. Equal values may be shown once. Read-outs that look alike come from different tables or passages of the source.

Experiments:
Assay type in all cases: cell-based
[1] = biological target: T1, α1β2 GABAA receptors (Rattus norvegicus, UniProt P62813+P63138); assay: Two electrode voltage clamp in Xenopus laevis oocytes, α1β2
T1 construct: expressed in transfected cells; host or cells: Xenopus laevis oocytes, mRNA injected
How it was run: (§1)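 cRNA ratio α:β 1:1 (mostly 3β:2α stoichiometry); α:β:γ2 1:1:5. 4.5 ng/oocyte. Incubation 18 °C: 2–3 d αβ, 3–4 d αβγ. Bath: NDE, 1.8 mM CaCl2, pH 7.5.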

[2] = biological target: T2, α1β3 GABAA receptors (Rattus norvegicus, UniProt P62813+P63079); assay: Two electrode voltage clamp in Xenopus laevis oocytes, α1β3
T2 construct: expressed in transfected cells; host or cells: Xenopus laevis oocytes, mRNA injected
How it was run: (§2)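 Rat α, β3 and γ2S cRNAs are co-injected into oocytes at 4.5 ng per cell. Binary αβ mixes are 1:1 and γ2-containing mixes are 1:1:5. Recording follows 2–4 days of expression at 18 °C.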

[3] = biological target: T3, α1β1 GABAA receptors (Rattus norvegicus, UniProt P15431+P62813); assay: Two electrode voltage clamp in Xenopus laevis oocytes, α1β1; conditions: for EC50: read-out: EC50
T3 construct: expressed in transfected cells; host or cells: Xenopus laevis oocytes, mRNA injected
How it was run: as §1

[4] = biological target: T4, α1β3N41R GABAA receptors (Rattus norvegicus, UniProt P62813+P63079, N66R); assay: Two electrode voltage clamp in Xenopus laevis oocytes, mutant α1β3N41R; conditions: co-applied with GABA EC3-5, read-out: EC50 values for the mutated receptors
T4 construct: expressed in transfected cells; host or cells: Xenopus laevis oocytes, mRNA injected
How it was run: as §2

[5] = biological target: T5, α3β3 GABAA receptors (Rattus norvegicus, UniProt P20236+P63079); assay: Two electrode voltage clamp in Xenopus laevis oocytes, α3β3
T5 construct: expressed in transfected cells; host or cells: Xenopus laevis oocytes, mRNA injected
Text: (§3) cDNA’s of rat GABAA receptor subunits α1, α4, β1, β2, β3 and γ2S were cloned as described. cDNAs of the rat subunits α2, α3 and α5 were gifts from P. Malherbe, that of α6 and γ1 were gifts of P. Seeburg and that of δ was a gift of C. Czajkowski. The mutants were constructed using the Q5 Site-Directed Mutagenesis Kit (New England Biolabs) following manufacturer’s instruction. We used the wild-type rat β3-pCI vector as template and the primers […] and […] resulting in a substitution of amino acid N41 (AAC) to R (AGG). We used the wild-type rat β1-pCI vector as template and the primers […] and […] resulting in a substitution of amino acid R41 (CGG) to N (AAC). The mutated subunits were confirmed by sequencing.
(§4) In vitro transcription of mRNA was based on the cDNA expression vectors encoding for rat GABAA receptor subunits α1–6, β1-3, γ1,2, δ and the two β mutants (β1R41N and β3N41R)[40]. After linearizing the cDNA vectors with appropriate restriction endonucleases, the cDNA was purified and concentrated with the DNA Clean and Contentrator ^TM Kit (Zymoresearch, Catalog No. D4005). Capped transcripts of the purified cDNA were produced using the mMESSAGE mMACHINE® T7 transcription kit (Ambion, TX, USA) and polyadenylated using the Ambion PolyA tailing kit (Ambion). After transcription and polyadenylation the RNA was purified with the MEGAclear ^TM Kit (Ambion, Catalog No. AM1908). The final RNA concentration was measured on NanoDrop® ND-1000 and finally diluted and stored in diethylpyrocarbonate-treated water at −80 °C. For the microinjection, the RNA of αβ receptor combinations was mixed at 1:1 ratio (which leads to αβ receptors that consist of predominantly 3 beta and 2 alpha subunits[27]), for αkβlγm (k = 1–3, l = 1, 3, m = 1, 2) receptors at 1:1:5 ratio, for αkβ3γ2 (k = 4–6) and αkβlδ (k = 1, 4 and 6, l = 1, 3) receptor combinations at 3:1:5 ratio.
(§5) Mature female Xenopus laevis (Nasco, WI) were anesthetized in a bath of ice-cold 0.17% Tricain (Ethyl-m-aminobenzoate, Sigma, MO) before decapitation in full accordance with all rules of the Austrian animal protection law (see http://www.ris.bka.gv.at/Dokumente/BgblAuth/BGBLA_2012_I_114/BGBLA_2012_I_114.pdf) and the Austrian animal experiment by-laws (see https://www.ris.bka.gv.at/Dokumente/BgblAuth/BGBLA_2012_II_522/BGBLA_2012_II_522.pdf) which implement the European Directive 2010/63/EU (see http://eur-lex.europa.eu/LexUriServ/LexUriServ.do?uri=OJ:L:2010:276:0033:0079:en:PDF) into the Austrian law (all information accessed on July 27, 2016). The frog’s ovaries were transferred to ND96 medium (96 mM NaCl, 2 mM KCl, 1 mM MgCl2, 5 mM HEPES; pH 7.5). Stage 5–6 oocytes with the follicle cell layer around them were roughly dissected with forceps into packages of 10–15 cells and washed in Ca^2+-free ND96 medium. Cells were then digested with collagenase (type IA, Sigma, NO, 1 mg/mL ND96) at 18 °C shaking at 30 rpm for 30–60 minutes and gently defolliculated with the aid of a glass pipette with appropriate tip diameter and a platinum loop. Defolliculated cells were stored at 18 °C for at least 6 hours in ND96 solution containing penicillin G (10000 IU/100 mL) and streptomycin (10 mg/100 mL) in order to preselect and exclude damaged cells from further treatment. Healthy defolliculated oocytes were injected with an aqueous solution of mRNA. A total of 4.5 ng of mRNA per oocyte was injected with a Nanoject II (Drummond). After injection of mRNA, oocytes were incubated at 18 °C (ND96 + antibiotic) for 2–3 days for αβ receptors and for 3–4 days for αβγ or αβδ receptors before recording. When cells were measured at later time points, oocytes were stored at +4 °C instead of 18 °C.
(§6) For electrophysiological recordings, oocytes were placed on a nylon-grid in a bath of Ca^2+-containing NDE solution medium [96 mM NaCl, 5 mM HEPES-NaOH (pH 7.5), 2 mM KCl, 1 mM MgCl2, 1.8 mM CaCl2].

[6] = biological target: T6, α1β1R41N GABAA receptors (Rattus norvegicus, UniProt P15431+P62813, R66N); assay: Two electrode voltage clamp in Xenopus laevis oocytes, mutant α1β1R41N; conditions: read-out: % of control current at EC3-5
T6 construct: expressed in transfected cells; host or cells: Xenopus laevis oocytes, mRNA injected
How it was run: as §1

[7] = biological target: T7, α1β3γ2 GABAA receptors (Rattus norvegicus, UniProt P62813+P63079); assay: Two electrode voltage clamp in Xenopus laevis oocytes, α1β3γ2
T7 construct: expressed in transfected cells; host or cells: Xenopus laevis oocytes, mRNA injected
Text: as §3, §4, §5, §6

T7 sequence (P62813 28-455): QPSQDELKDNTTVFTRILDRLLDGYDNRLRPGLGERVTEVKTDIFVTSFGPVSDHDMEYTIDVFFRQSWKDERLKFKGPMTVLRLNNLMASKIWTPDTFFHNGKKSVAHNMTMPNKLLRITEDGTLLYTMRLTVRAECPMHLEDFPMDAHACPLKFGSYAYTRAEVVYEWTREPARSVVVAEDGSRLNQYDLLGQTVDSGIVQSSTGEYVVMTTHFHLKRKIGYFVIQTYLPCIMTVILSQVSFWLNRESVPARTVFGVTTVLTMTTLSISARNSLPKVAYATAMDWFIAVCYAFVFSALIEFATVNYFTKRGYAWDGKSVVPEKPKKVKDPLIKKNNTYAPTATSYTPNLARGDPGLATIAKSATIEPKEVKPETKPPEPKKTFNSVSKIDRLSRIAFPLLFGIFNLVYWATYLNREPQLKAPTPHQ
T7 sequence (P63079 26-473): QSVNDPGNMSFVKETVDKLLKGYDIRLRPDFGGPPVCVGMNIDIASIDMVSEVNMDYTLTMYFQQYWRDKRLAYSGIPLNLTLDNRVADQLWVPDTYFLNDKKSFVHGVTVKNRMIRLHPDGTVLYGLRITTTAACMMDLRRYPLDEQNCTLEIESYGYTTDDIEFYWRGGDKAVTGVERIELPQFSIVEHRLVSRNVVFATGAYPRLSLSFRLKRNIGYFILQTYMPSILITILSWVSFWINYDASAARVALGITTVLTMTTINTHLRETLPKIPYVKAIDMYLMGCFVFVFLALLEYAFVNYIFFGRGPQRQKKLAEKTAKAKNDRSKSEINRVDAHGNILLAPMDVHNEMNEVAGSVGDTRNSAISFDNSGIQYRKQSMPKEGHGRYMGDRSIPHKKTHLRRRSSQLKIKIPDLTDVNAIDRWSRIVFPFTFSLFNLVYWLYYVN
T7 sequence (P18508 39-466 partner): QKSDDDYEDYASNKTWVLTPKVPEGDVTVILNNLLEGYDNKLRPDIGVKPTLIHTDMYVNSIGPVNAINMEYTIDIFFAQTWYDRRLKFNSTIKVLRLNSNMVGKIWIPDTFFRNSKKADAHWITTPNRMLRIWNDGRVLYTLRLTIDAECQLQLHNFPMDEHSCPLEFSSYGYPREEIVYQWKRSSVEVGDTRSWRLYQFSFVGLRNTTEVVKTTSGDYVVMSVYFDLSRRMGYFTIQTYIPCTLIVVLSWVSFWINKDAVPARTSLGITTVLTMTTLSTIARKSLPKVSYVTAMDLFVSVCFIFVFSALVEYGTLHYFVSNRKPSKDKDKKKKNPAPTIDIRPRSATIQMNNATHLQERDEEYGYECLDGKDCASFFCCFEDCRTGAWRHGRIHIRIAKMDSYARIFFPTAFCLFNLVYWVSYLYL
T2 sequence (P62813 28-455): as the sequence (P62813 28-455) above
T2 sequence (P63079 26-473): as the sequence (P63079 26-473) above
T1 sequence (P62813 28-455): as the sequence (P62813 28-455) above
T1 sequence (P63138 25-474 limits assumed): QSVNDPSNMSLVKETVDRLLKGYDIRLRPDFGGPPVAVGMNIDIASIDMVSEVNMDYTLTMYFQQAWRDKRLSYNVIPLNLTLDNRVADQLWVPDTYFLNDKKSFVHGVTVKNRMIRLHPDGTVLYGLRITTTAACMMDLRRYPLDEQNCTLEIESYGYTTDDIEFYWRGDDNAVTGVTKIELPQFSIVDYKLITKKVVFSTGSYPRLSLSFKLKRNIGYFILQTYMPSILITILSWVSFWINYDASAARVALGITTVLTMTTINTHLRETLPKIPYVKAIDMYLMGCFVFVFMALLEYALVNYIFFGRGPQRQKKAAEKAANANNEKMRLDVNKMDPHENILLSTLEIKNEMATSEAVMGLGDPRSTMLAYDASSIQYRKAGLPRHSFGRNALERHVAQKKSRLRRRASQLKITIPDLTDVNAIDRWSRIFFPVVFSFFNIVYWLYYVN
T6 sequence (P62813 28-455): as the sequence (P62813 28-455) above
T6 sequence (P15431 26-474 R66N): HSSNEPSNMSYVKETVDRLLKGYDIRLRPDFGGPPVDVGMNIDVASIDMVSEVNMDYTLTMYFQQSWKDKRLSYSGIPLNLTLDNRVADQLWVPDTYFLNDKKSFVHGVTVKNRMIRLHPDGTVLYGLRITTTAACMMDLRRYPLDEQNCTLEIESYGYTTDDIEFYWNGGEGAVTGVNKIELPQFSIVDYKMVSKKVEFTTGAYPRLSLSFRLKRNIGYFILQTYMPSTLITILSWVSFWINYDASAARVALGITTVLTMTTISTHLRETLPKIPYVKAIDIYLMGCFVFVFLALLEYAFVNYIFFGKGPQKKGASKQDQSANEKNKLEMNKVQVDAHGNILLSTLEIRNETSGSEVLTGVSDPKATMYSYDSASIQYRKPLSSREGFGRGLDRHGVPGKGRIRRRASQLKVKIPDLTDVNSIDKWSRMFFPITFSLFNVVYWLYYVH
T3 sequence (P62813 28-455): as the sequence (P62813 28-455) above
T3 sequence (P15431 26-474): as the sequence (P15431 26-474 R66N) above, with N41R counted along it
T5 sequence (P20236 29-493): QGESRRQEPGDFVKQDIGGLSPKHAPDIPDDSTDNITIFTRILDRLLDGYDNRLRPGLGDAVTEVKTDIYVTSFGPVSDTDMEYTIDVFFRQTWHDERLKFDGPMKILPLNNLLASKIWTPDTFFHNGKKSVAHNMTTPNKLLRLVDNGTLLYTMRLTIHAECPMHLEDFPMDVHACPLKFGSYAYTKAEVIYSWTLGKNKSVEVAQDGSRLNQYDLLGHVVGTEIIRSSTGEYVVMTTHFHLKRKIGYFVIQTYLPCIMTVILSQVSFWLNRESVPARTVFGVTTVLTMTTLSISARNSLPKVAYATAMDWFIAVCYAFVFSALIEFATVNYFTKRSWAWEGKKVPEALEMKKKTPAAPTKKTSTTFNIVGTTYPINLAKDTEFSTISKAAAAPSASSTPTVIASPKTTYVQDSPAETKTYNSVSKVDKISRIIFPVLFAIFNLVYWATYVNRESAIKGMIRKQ
T5 sequence (P63079 26-473): as the sequence (P63079 26-473) above
T4 sequence (P62813 28-455): as the sequence (P62813 28-455) above
T4 sequence (P63079 26-473 N66R): as the sequence (P63079 26-473) above, with N41R counted along it

What does the source list for `Nc1ccc(-n2nc3c4cc(Cl)ccc4[nH]cc-3c2=O)cc1` [Compound 3, 8-Chloro-2-(4-aminophenyl)-2H-pyrazolo[4,3-c]quinolin-3(5H)-one]?
EC50 [1]: 1.05 µM; activity at 30 µM ([1]; read-out: efficacy, % of control current (GABA EC3-5 = 100%), α1β2, 30 µM): 106 ± 11.4%; Hill slope (nH) ([1]; α1β2): 2.0±0.7; activity at 0.001 µM ([2]; read-out: efficacy, % of control current (GABA EC3-5 = 100%), α1β3, 1 nM): 106 ± 1.9%; activity at 0.01 µM ([2]; read-out: efficacy, % of control current (GABA EC3-5 = 100%), α1β3, 10 nM): 108 ± 5.1%; activity at 0.1 µM ([2]; read-out: efficacy, % of control current (GABA EC3-5 = 100%), α1β3, 100 nM): 125 ± 4.6%; activity at 0.3 µM ([2]; read-out: efficacy, % of control current (GABA EC3-5 = 100%), α1β3, 300 nM): 128 ± 8%; activity at 3 µM ([2]; read-out: efficacy, % of control current (GABA EC3-5 = 100%), α1β3, 3 µM): 254 ± 28.7%; Hill slope (nH) ([2]; α1β3): 1.1±0.5; efficacy, % of control current (GABA EC3-5 = 100%) ([2]; α1β3, 100 nM, 0.1 µM): 117.8±5.9%; EC50 ([2]; α1β3, co-applied with GABA EC3-5, read-out: EC50): 1.47 µM and 2.2 µM; activity at 0.01 µM ([3]; read-out: efficacy, % of control current (GABA EC3-5 = 100%), α1β1, 10 nM): 116 ± 3.6%; activity at 0.3 µM ([3]; read-out: efficacy, % of control current (GABA EC3-5 = 100%), α1β1, 300 nM): 299 ± 29.7%; activity at 10 µM ([3]; read-out: efficacy, % of control current (GABA EC3-5 = 100%), α1β1, 10 µM): 403 ± 50.9%; Hill slope (nH) ([3]; α1β1): 1.0±0.4; EC50 ([3]; α1β1 (α1+/β1− interface)): ~0.2 µM; EC50 ([3]; α1β1, co-applied with GABA EC3-5): 0.22 µM; EC50 [4]: 0.2 µM; EC50 [5]: 1.9 µM; activity at 0.001 µM ([5]; read-out: efficacy, % of control current (GABA EC3-5 = 100%), α3β3, 1 nM): 103 ± 3.1%; activity at 1 µM ([5]; read-out: efficacy, % of control current (GABA EC3-5 = 100%), α3β3, 1 µM): 144 ± 6.3%; current as % of control at 0.1 µM ([6]; 100nM): 70 ± 1%; current as % of control at 0.3 µM ([6]; 300nM): 65 ± 6%; current as % of control at 1 µM ([6]; 1μM): 85 ± 7%; current as % of control at 3 µM ([6]; 3µM): 100 ± 8%; current as % of control at 10 µM ([6]; 10μM): 125 ± 5%; current as % of control at 30 µM ([6]; 30μM): 110 ± 10%; EC50 ([7]; co-applied with GABA EC3-5, read-out: EC50): ~1 µM; activity at 0.001 µM ([7]; read-out: efficacy, % of control current (GABA EC3-5 = 100%), 1 nM): 100.8 ± 0.6%; activity at 0.01 µM ([7]; read-out: efficacy, % of control current (GABA EC3-5 = 100%), 10 nM): 103 ± 1.4%; activity at 0.3 µM ([7]; read-out: efficacy, % of control current (GABA EC3-5 = 100%), 300 nM): 120 ± 4.3%; activity at 1 µM ([7]; read-out: efficacy, % of control current (GABA EC3-5 = 100%), 1 µM): 145 ± 3.7%; activity at 3 µM ([7]; read-out: efficacy, % of control current (GABA EC3-5 = 100%), 3 µM): 197 ± 13.7%; activity at 10 µM ([7]; read-out: efficacy, % of control current (GABA EC3-5 = 100%), 10 µM): 232 ± 7.5%; activity at 30 µM ([7]; read-out: efficacy, % of control current (GABA EC3-5 = 100%), 30 µM): 137 ± 17.8%; Emax ([7]; read-out: maximum efficacy / modulatory effects up to): ~200%; EC50 ([7]; read-out: pEC50 (converted)): 1.26 µM
